Source: ChEMBL document CHEMBL5233270, “DYRK1A Inhibitors as Potential Therapeutics for β-Cell Regeneration for Diabetes” (J Med Chem, 2021)

Legend:
[1] = Cytotoxicity against mouse R7T1 cells assessed as reduction in cell viability; assay type: functional
[2] = Synergistic […] activity against human Pancreatic beta cell proliferation in presence of GLP1 at 5 nM by Ki-67 immuno labelling assay; assay type: functional
[3] = Synergistic […] activity against human Pancreatic beta cell proliferation in NSG mouse model at 0.5 ug/kg by immuno labelling assay; assay type: functional
[4] = AUC (0 to infinity) in mouse at 1 mg/kg, po; assay type: ADME, organism-based; design: dose 1 mg/kg, route po; settings: in vivo
[5] = Volume of distribution at steady state in mouse, po; assay type: ADME; settings: in vivo
[6] = molecular target: Dual specificity protein kinase CLK1/CLK2/CLK4 (Homo sapiens) (UniProt Q9HAZ1+P49759+P49760); test: Inhibition of CLK1/2/4 (unknown origin) relative to control; assay type: protein assay; settings: concentration not given here
[7] = Selectivity ratio of CC50 for mouse R7T1 cells to ECmin for mouse pancreatic islet cells; assay type: toxicity; settings: R7T1 cells (CC50) and pancreatic islet cells (ECmin)
[8] = Induction of rat Pancreatic beta cell proliferation at 1 uM assessed as increase in fold chain after 6 days in presence of EdU incorporation by Cell-Titer Glo assay; assay type: functional; settings: time 6 day
[9] = Induction of human Pancreatic beta cell proliferation at 50 mg/kg measured after 5 days in presence of EdU incorporation by Cell-Titer Glo assay; assay type: functional; settings: 120 h
[10] = molecular target: Glycogen synthase kinase-3 beta (Homo sapiens, UniProt P49841); test: Inhibition of GSK3beta (unknown origin)
Sequence of Glycogen synthase kinase-3 beta (P49841 whole entry): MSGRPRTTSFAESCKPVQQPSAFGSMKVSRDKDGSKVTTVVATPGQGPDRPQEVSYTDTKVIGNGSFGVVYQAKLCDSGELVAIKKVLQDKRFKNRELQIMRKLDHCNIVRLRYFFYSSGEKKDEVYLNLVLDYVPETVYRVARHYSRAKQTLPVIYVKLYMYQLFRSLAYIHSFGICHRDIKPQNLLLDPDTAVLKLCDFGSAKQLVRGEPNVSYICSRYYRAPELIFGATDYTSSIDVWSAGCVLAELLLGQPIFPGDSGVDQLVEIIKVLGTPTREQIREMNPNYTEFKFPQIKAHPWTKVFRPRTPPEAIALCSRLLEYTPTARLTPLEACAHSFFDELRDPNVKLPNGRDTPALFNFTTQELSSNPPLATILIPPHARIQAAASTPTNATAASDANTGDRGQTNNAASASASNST

Sequence of Dual specificity protein kinase CLK1/CLK2/CLK4 (Homo sapiens) (P49759 whole entry, looked up): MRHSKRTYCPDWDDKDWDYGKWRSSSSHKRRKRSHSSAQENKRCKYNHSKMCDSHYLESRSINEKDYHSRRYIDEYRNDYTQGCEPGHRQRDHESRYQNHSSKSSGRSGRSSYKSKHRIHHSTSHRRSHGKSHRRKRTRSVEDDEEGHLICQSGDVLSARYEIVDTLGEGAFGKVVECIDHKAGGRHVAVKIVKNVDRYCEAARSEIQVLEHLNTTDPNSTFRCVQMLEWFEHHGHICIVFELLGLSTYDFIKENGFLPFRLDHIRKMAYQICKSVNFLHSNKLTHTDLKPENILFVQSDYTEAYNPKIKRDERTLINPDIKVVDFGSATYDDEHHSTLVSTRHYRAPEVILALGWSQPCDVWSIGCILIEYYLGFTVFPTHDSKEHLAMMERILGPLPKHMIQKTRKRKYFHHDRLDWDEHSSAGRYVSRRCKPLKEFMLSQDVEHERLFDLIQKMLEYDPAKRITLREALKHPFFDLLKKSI
Sequence of Dual specificity protein kinase CLK1/CLK2/CLK4 (Homo sapiens) (P49760 whole entry, looked up): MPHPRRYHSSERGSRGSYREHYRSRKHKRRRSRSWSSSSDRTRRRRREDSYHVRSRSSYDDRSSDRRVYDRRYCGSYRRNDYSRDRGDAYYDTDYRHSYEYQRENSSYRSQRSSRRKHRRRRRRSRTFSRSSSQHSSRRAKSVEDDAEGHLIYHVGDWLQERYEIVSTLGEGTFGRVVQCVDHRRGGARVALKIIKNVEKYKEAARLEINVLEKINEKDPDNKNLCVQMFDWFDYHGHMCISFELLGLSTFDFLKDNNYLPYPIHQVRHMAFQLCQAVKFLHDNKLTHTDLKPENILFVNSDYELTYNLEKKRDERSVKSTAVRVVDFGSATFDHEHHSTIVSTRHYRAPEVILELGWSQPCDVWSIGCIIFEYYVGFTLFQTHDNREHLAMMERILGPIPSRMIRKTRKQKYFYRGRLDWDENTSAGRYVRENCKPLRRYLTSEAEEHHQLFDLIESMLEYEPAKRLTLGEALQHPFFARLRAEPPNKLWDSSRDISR
Sequence of Dual specificity protein kinase CLK1/CLK2/CLK4 (Homo sapiens) (Q9HAZ1 whole entry, looked up): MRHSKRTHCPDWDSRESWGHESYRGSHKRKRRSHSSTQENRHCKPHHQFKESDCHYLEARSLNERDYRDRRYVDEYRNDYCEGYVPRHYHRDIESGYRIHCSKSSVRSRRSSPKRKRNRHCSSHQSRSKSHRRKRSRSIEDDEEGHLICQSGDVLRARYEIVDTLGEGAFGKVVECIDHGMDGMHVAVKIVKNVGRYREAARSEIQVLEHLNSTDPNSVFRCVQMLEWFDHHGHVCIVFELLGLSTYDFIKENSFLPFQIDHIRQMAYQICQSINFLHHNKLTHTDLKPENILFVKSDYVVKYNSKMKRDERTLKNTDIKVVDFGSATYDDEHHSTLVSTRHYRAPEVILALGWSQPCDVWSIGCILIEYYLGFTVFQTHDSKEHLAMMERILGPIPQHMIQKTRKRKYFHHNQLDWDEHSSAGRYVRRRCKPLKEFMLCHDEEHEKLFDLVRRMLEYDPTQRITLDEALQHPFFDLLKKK

CC(C)Oc1ccc(F)c(-c2cnc(N)c(C(=O)Nc3cnccc3N3CCCC(C(=O)O)C3)n2)c1 (centres undefined)
Emin [1]: <100 nM

COc1ccc2c(c1)[nH]c1c(C)nccc12 [HARMINE]
Activity [2]: 5% | Activity [3]: 0.8%

CCN1CCN(C(=O)Nc2cc(-c3cn(C4CCOCC4)c4cnccc34)ccn2)CC1
AUC [4]: 3.27 µM·h | Vdss [5]: 11 L/kg | inhibition [6]: 90%

CCOC(=O)c1cnc2ccc(-c3ccncc3)nc2c1N[C@H]1CC[C@H](CN(C)C)CC1
selectivity ratio [7]: 259

Nc1ncnc2c1c(I)cn2[C@@H]1O[C@H](CO)[C@@H](O)[C@H]1O [IODOTUBERCIDIN]
fold change (FC) [8]: 10

CCOC(=O)c1cnc2ccc(-c3cc(Cl)c(O)c(Cl)c3)nc2c1NC1CCN(C)CC1
Emin [1]: 10 nM | selectivity ratio [7]: 117

Nc1ncc(-c2ccccc2)nc1C(=O)Nc1cnccc1N1CCC(C(=O)O)CC1
EC50 [9]: 0.76 nM

CCOC(=O)c1cnc2ccc(-c3ccncc3)nc2c1N[C@H]1CC[C@H](CN2CCOCC2)CC1
Emin [1]: 3.3 nM | selectivity ratio [7]: 143

COc1ccc2c(c1)[nH]c1c(CO)nccc12
IC50 [10]: > 8300 nM
